Structures can show the parent of a compound that is named as a salt.

This passage reports IC50 results from patent US20160318866A1, “SUBSTITUTED BIPIPERIDINYL DERIVATIVES” (Bayer Pharma Aktiengesellschaft, priority 2013, published 2016).

This test has as its target T1, human α2C receptor (Homo sapiens, UniProt P18825).
T1 construct: expressed in transfected cells; host or cells: CHO cells, also recombinantly expressing chimeric G protein Gαqi3 and mitochondrial obelin (mtOb)
T1 sequence (P18825 1-462): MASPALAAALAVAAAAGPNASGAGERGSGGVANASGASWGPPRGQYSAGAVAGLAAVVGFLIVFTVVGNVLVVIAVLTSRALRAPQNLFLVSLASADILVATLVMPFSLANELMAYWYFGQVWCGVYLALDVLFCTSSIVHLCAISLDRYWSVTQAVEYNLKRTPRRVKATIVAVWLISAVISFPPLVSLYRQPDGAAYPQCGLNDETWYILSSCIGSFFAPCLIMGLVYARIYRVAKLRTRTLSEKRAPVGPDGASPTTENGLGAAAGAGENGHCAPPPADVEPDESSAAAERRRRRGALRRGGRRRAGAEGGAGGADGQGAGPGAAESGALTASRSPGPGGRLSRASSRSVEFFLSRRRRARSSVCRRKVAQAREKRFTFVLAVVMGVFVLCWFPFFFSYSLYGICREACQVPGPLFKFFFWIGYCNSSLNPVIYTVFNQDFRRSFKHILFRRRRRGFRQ
The test can be described thus: Antagonism against the adrenoreceptor α2C (luminescence, recombinant CHO cell line). Format: cell-based. Particulars: antagonism against adrenoreceptor α2C; noradrenaline 20 nM; tested up to 10 μM; read-out: IC50. The method, boiled down: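 CHO cells expressing human α2C receptor with chimeric Gαqi3 and mitochondrial obelin, loaded with 2.5 μg/ml coelenterazine for one day at 30 °C.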
In the case of `CC1CCCN(C2CCN(C(=O)c3ccc(C(=O)NCc4ccccc4C(F)(F)F)cc3)CC2)C1` (stereo not drawn) [Example 81, 4-[(3-Methyl-1,4′-bipiperidin-1′-yl)carbonyl]-N-[2-(trifluoromethyl)benzyl]benzamide trifluoroacetic acid salt], the IC50 (in general, the concentration that inhibits the measured activity by half) amounted to 0.057 µM.
The figure for `C[C@@H]1CCCN(C2CCN(C(=O)c3ccc(C(=O)NCc4ncc(F)cc4F)cc3)CC2)C1` [Example 82, (R)—N-[(3,5-Difluoropyridin-2-yl)methyl]-4-{[(3R)-3-methyl-1,4′-bipiperidin-1′-yl]carbonyl}benzamide trifluoroacetic acid salt] is 0.015 µM; for `C[C@@H]1CCCN(C2CCN(C(=O)c3ccc(C(=O)NCc4cccnc4Cl)cc3)CC2)C1` [Example 83, (R)—N-[(2-Chloropyridin-3-yl)methyl]-4-{[(3R)-3-methyl-1,4′-bipiperidin-1′-yl]carbonyl}benzamide trifluoroacetic acid salt] it is 0.007 µM.
For `C[C@@H]1CCCN(C2CCN(C(=O)c3ccc(C(=O)N(C)Cc4c(F)cccc4F)cc3)CC2)C1` [Example 84, (R)—N-(2,6-Difluorobenzyl)-N-methyl-4-{[(3R)-3-methyl-1,4′-bipiperidin-1′-yl]carbonyl}benzamide trifluoroacetic acid salt] the value was 0.003 µM; for `C[C@@H]1CCCN(C2CCN(C(=O)c3ccc(C(=O)NC(c4ccc(C(F)(F)F)cc4)C(F)(F)F)cc3)CC2)C1` (stereo partly drawn) [Example 85, 4-{[(3R)-3-Methyl-1,4′-bipiperidin-1′-yl]carbonyl}-N-{2,2,2-trifluoro-1-[4-(trifluoromethyl)phenyl]ethyl}benzamide trifluoroacetic acid salt], 0.2 µM.
As for `C[C@@H]1CCCN(C2CCN(C(=O)c3ccc(C(=O)NCc4cccc(OC(F)F)c4)cc3)CC2)C1` [Example 86, (R)—N-[3-(Difluoromethoxy)benzyl]-4-[(3-methyl-1,4′-bipiperidin-1′-yl)carbonyl]benzamide trifluoroacetic acid salt], the IC50 was 0.18 µM.
The figure for `CC(NC(=O)c1ccc(C(=O)N2CCC(N3CCC[C@@H](C)C3)CC2)cc1)c1c(F)cccc1F` (stereo partly drawn) [Example 87, N-[1-(2,6-Difluorophenyl)ethyl]-4-{[(3R)-3-methyl-1,4′-bipiperidin-1′-yl]carbonyl}benzamide trifluoroacetic acid salt] is 0.016 µM; for `C[C@@H]1CCCN(C2CCN(C(=O)c3ccc(C(=O)NCc4c(F)cccc4F)cc3)CC2)C1` [Example 88, N-(2,6-Difluorobenzyl)-4-{[(3R)-3-methyl-1,4′-bipiperidin-1′-yl]carbonyl}benzamide trifluoroacetic acid salt] it is 0.011 µM; for `C[C@@H]1CCCN(C2CCN(C(=O)c3ccc(C(=O)NC(CCO)c4ccccc4F)cc3)CC2)C1` (stereo partly drawn) [Example 89, N-[1-(2-Fluorophenyl)-3-hydroxypropyl]-4-{[(3R)-3-methyl-1,4′-bipiperidin-1′-yl]carbonyl}benzamide trifluoroacetic acid salt] it is 0.017 µM.
With `C[C@@H]1CCCN(C2CCN(C(=O)c3ccc(C(=O)NCc4cc(Cl)ccn4)cc3)CC2)C1` [Example 90, N-[(4-Chloropyridin-2-yl)methyl]-4-{[(3R)-3-methyl-1,4′-bipiperidin-1′-yl]carbonyl}benzamide], the IC50 amounted to 0.028 µM.
For `C[C@@H]1CCCN(C2CCN(C(=O)c3ccc(C(=O)NCc4ncc(Cl)cc4C(F)(F)F)cc3)CC2)C1` [Example 91, N-{[5-Chloro-3-(trifluoromethyl)pyridin-2-yl]methyl}-4-{[(3R)-3-methyl-1,4′-bipiperidin-1′-yl]carbonyl}benzamide] the value was 0.013 µM; for `C[C@@H]1CCCN(C2CCN(C(=O)c3ccc(C(=O)NCc4cc(C(F)(F)F)c(Cl)cn4)cc3)CC2)C1` [Example 92, N-{[5-Chloro-4-(trifluoromethyl)pyridin-2-yl]methyl}-4-{[(3R)-3-methyl-1,4′-bipiperidin-1′-yl]carbonyl}benzamide], 0.16 µM.
Turning to `CC(NC(=O)c1ccc(C(=O)N2CCC(N3CCC[C@@H](C)C3)CC2)cc1)c1ccncc1` (stereo partly drawn) [Example 93, 4-{[(3R)-3-Methyl-1,4′-bipiperidin-1′-yl]carbonyl}-N-[1-(pyridin-4-yl)ethyl]benzamide], the IC50 stood at 0.135 µM.
The figure for `C[C@@H]1CCCN(C2CCN(C(=O)c3ccc(C(=O)NC(CO)c4ccccc4F)cc3)CC2)C1` (stereo partly drawn) [Example 94, N-[1-(2-Fluorophenyl)-2-hydroxyethyl]-4-{[(3R)-3-methyl-1,4′-bipiperidin-1′-yl]carbonyl}benzamide] is 0.025 µM.
The figure for `Cc1ncccc1CNC(=O)c1ccc(C(=O)N2CCC(N3CCC[C@@H](C)C3)CC2)cc1` [Example 95, 4-{[(3R)-3-Methyl-1,4′-bipiperidin-1′-yl]carbonyl}-N-[(2-methylpyridin-3-yl)methyl]benzamide] is 0.047 µM.
For `COCC1CCCN(C2CCN(C(=O)c3ccc(C(=O)N(C)Cc4c(F)cccc4F)cc3)CC2)C1` (stereo not drawn) [Example 96, N-(2,6-Difluorobenzyl)-4-{[3-(methoxymethyl)-1,4′-bipiperidin-1′-yl]carbonyl}-N-methylbenzamide trifluoroacetic acid salt], the 50% inhibitory concentration (IC50) stood at 0.01 µM.
The figure for `COCC1CCCN(C2CCN(C(=O)c3ccc(C(=O)NCc4ncc(F)cc4F)cc3)CC2)C1` (stereo not drawn) [Example 97, N-[(3,5-Difluoropyridin-2-yl)methyl]-4-{[3-(methoxymethyl)-1,4′-bipiperidin-1′-yl]carbonyl}benzamide trifluoroacetic acid salt] is 0.01 µM.
The figure for `C[C@@H]1CCCN(C2CCN(C(=O)c3ccc(C(=O)NCc4ncccc4F)cc3)CC2)C1` [Example 98, N-[(3-Fluoropyridin-2-yl)methyl]-4-{[(3R)-3-methyl-1,4′-bipiperidin-1′-yl]carbonyl}benzamide] is 0.027 µM; for `C[C@@H]1CCCN(C2CCN(C(=O)c3ccc(C(C)(C)O)c(Cl)c3)CC2)C1` [Example 99, [3-Chloro-4-(2-hydroxypropan-2-yl)phenyl][(3R)-3-methyl-1,4′-bipiperidin-1′-yl]methanone] it is 0.084 µM; for `C[C@@H]1CCCN(C2CCN(C(=O)c3ccc(C(=O)NC(C)(C)C)c(Cl)c3)CC2)C1` [Example 100, N-tert-Butyl-2-chloro-4-{[(3R)-3-methyl-1,4′-bipiperidin-1′-yl]carbonyl}benzamide formic acid salt] it is 0.027 µM.
The figure for `C[C@@H]1CCCN(C2CCN(C(=O)c3ccc(C(=O)NC(C)(C)C)cc3Cl)CC2)C1` [Example 101, N-tert-Butyl-3-chloro-4-{[(3R)-3-methyl-1,4′-bipiperidin-1′-yl]carbonyl}benzamide formic acid salt] is 0.021 µM; for `CC1CCCN(C2CCN(C(=O)c3ccc(C(=O)NC(C)(C)C)cc3F)CC2)C1` (stereo not drawn) [Example 102, N-tert-Butyl-3-fluoro-4-[(3-methyl-1,4′-bipiperidin-1′-yl)carbonyl]benzamide hydrochloride] it is 0.067 µM.
`CC1CCCN(C2CCN(C(=O)c3ccc(C(=O)NC(C)(C)C)c(F)c3)CC2)C1` (stereo not drawn) [Example 103, N-tert-Butyl-2-fluoro-4-[(3-methyl-1,4′-bipiperidin-1′-yl)carbonyl]benzamide]: the IC50 worked out at 0.073 µM.
For `CC1=C(C)CN(C2CCN(C(=O)c3ccc(C(=O)Nc4c(C)noc4C)cc3)CC2)CC1` [Example 104, 4-{[4-(4,5-Dimethyl-3,6-dihydropyridin-1 (2H)-yl)piperidin-1-yl]carbonyl}-N-(3,5-dimethyl-1,2-oxazol-4-yl)benzamide] the value was 0.009 µM; for `COCC1CCCN(C2CCN(C(=O)c3ccc(C(=O)Nc4c(C)noc4C)cc3)CC2)C1` (stereo not drawn) [Example 105, N-(3,5-Dimethyl-1,2-oxazol-4-yl)-4-{[3-(methoxymethyl)-1,4′-bipiperidin-1′-yl]carbonyl}benzamide], 0.01 µM.
For `CC(C)(C)OCC1CCCN(C2CCN(C(=O)c3ccc(C(C)(C)O)cc3)CC2)C1` (stereo not drawn) [Example 106, [3-(tert-Butoxymethyl)-1,4′-bipiperidin-1′-yl][4-(2-hydroxypropan-2-yl)phenyl]methanone] the value was 0.035 µM.
In the case of `CC(C)(C)OCC1CCCN(C2CCN(C(=O)c3ccc(C(C)(C)C)cc3)CC2)C1` (stereo not drawn) [Example 107, [3-(tert-Butoxymethyl)-1,4′-bipiperidin-1′-yl](4-tert-butylphenyl)methanone], the half-inhibitory concentration (IC50) worked out at 0.09 µM.
The figure for `CC(C)(O)c1ccc(C(=O)N2CCC(N3CCCC(COc4cccc(F)c4)C3)CC2)cc1` (stereo not drawn) [Example 108, {3-[(3-Fluorophenoxy)methyl]-1,4′-bipiperidin-1′-yl}[4-(2-hydroxypropan-2-yl)phenyl]methanone] is 0.112 µM; for `COCCc1noc(C2CCCN(C3CCN(C(=O)c4ccc(C(C)(C)C)cc4)CC3)C2)n1` (stereo not drawn) [Example 109, (4-tert-Butylphenyl){3[3-(2-methoxyethyl)-1,2,4-oxadiazol-5-yl]-1,4′-bipiperidin-1′-}methanone] it is 0.104 µM; for `CC(C)(O)c1ccc(C(=O)N2CCC(N3CCCC(COC(F)(F)F)C3)CC2)cc1` (stereo not drawn) [Example 110, [4-(2-Hydroxypropan-2-yl)phenyl]{3-[(trifluoromethoxy)methyl]-1,4′-bipiperidin-1′-yl}methanone] it is 0.007 µM.
